For eight molecules, GI50 and TGI results are on record in PubChem BioAssay (NCI).

Some test systems named below: CCRF-CEM leukemia; HCT-15 colon; HT29 colon; MCF7 breast; MDA-MB-435; SF-539 CNS; SK-MEL-2 melanoma; SK-MEL-28 melanoma; SNB-75 CNS; T-47D breast.
Assay in all cases: NCI anticancer screen, dose series, 48 h

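Where inhibition never reached the appropriate level, the endpoint shown equals the highest concentration tested. Otherwise, values were interpolated linearly from a five-concentration, 48-hour dose response in 96-well plates. The concentration for 50% growth inhibition is given as GI50. TGI marks complete inhibition of growth.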

Regarding `Cc1cc2oc(=O)cc(OC/C=C3/CCC(=O)O3)c2cc1C`, the GI50 in the assay with CCRF-CEM leukemia is 2.33 µM; with HCT-15 colon it was 2.69 µM; in the assay on HT29 colon it was 2.9 µM; in the assay with MCF7 breast, 2.25 µM; with MDA-MB-435, 4.64 µM; with SF-539 CNS it was 1.34 µM. Also, the GI50 with SK-MEL-2 melanoma is 3.41 µM; in the assay on SK-MEL-28 melanoma it was 10.6 µM; with SNB-75 CNS, 1.97 µM; in the assay with T-47D breast, 1.69 µM. For the same molecule, the TGI in the assay on CCRF-CEM leukemia is 7.25 µM; in the assay on HCT-15 colon it was 12.2 µM; with HT29 colon it was 12.7 µM; in the assay with MCF7 breast, 12.6 µM; in the assay with MDA-MB-435, 18.5 µM; in the assay on SF-539 CNS, 5.7 µM. Besides, the TGI was found to be 16.1 µM in the assay on SK-MEL-2 melanoma, 24 µM in the assay with SK-MEL-28 melanoma, 9.61 µM in the assay with SNB-75 CNS and 7.5 µM in the assay on T-47D breast.

`Cn1c2ccccc2c2c(=O)n(CCCC(=O)NCCc3cnc[nH]3)c3c(-c4ccccc4)nnn3c21`: the GI50 in the assay with CCRF-CEM leukemia is 1.51 µM; with HCT-15 colon it was 14.6 µM; in the assay on HT29 colon, 8.55 µM; in the assay on MCF7 breast, 13 µM; in the assay with MDA-MB-435 it was 10.2 µM; in the assay with SF-539 CNS it was 9.26 µM. The GI50 with SK-MEL-2 melanoma was 10.3 µM; in the assay on SK-MEL-28 melanoma it was 8.86 µM; in the assay on SNB-75 CNS it was 10.4 µM; in the assay on T-47D breast, 10.4 µM. Further, the TGI with CCRF-CEM leukemia is more than 50 µM; in the assay with HCT-15 colon it was 44.1 µM; in the assay with HT29 colon, 17.9 µM; in the assay on MCF7 breast, 30.3 µM; in the assay with MDA-MB-435, 20 µM; with SF-539 CNS, 17.2 µM. Besides, the TGI in the assay on SK-MEL-2 melanoma turned out to be 21 µM; in the assay with SK-MEL-28 melanoma it was 16.9 µM; in the assay on SNB-75 CNS it was 18.6 µM; with T-47D breast it was 25.1 µM.

With `Fc1ccc(-c2c(-c3ccncc3)[nH]c3cccnc23)cc1`, the GI50 in the assay with CCRF-CEM leukemia is more than 25 µM; with HCT-15 colon it was 15.4 µM; in the assay on HT29 colon, 8.18 µM; in the assay with MCF7 breast, 13.8 µM; with MDA-MB-435, more than 25 µM; in the assay on SF-539 CNS, more than 25 µM. The GI50 was more than 25 µM with SK-MEL-2 melanoma, more than 25 µM in the assay on SK-MEL-28 melanoma, more than 17.8 µM with SNB-75 CNS and 13.4 µM in the assay with T-47D breast. In addition, the TGI in the assay with CCRF-CEM leukemia, in the assay on HCT-15 colon, with HT29 colon, in the assay with MCF7 breast, in the assay on MDA-MB-435 and with SF-539 CNS was more than 25 µM each time. Besides, the TGI in the assay on SK-MEL-2 melanoma, in the assay on SK-MEL-28 melanoma, in the assay on SNB-75 CNS and in the assay with T-47D breast was more than 25 µM throughout.

On to `COc1ccc2c(c1)C(=O)/C(=C/c1cccc(OCC(=O)c3ccc([N+](=O)[O-])cc3)c1)CO2`, for which the GI50 in the assay with CCRF-CEM leukemia is 2.32 µM; in the assay on HCT-15 colon, 2.17 µM; with HT29 colon, 1.93 µM; in the assay with MCF7 breast it was 0.72 µM; in the assay on MDA-MB-435 it was 2.32 µM; with SF-539 CNS, 2.33 µM. In addition, the GI50 with SK-MEL-2 melanoma was 1.64 µM; with SK-MEL-28 melanoma, 1.86 µM; with SNB-75 CNS, 1.83 µM; in the assay with T-47D breast, 1.65 µM. Besides, the TGI in the assay with HCT-15 colon is 6.92 µM; in the assay on HT29 colon it was 4.6 µM; with MCF7 breast it was 3.68 µM; in the assay on MDA-MB-435 it was 7.11 µM; in the assay on SF-539 CNS it was 6.12 µM; in the assay on SK-MEL-2 melanoma, 4.2 µM. Further, the TGI in the assay on SK-MEL-28 melanoma was determined as 3.7 µM; in the assay on SNB-75 CNS, 8.09 µM; with T-47D breast, 4.54 µM.

Turning to `O=[N+]([O-])c1cc(C(F)(F)F)cc2n[se]nc12`, the TGI in the assay with CCRF-CEM leukemia was 10.8 µM; in the assay with HCT-15 colon, 5.59 µM; with HT29 colon, 21.9 µM; in the assay on MCF7 breast, 4.07 µM; in the assay with MDA-MB-435, 4.78 µM; with SF-539 CNS it was 7.33 µM. Also, the TGI in the assay on SK-MEL-2 melanoma worked out at 22.7 µM; in the assay on SK-MEL-28 melanoma it was 4.39 µM; in the assay with SNB-75 CNS it was 19.8 µM; in the assay with T-47D breast it was 10.4 µM.

As for `COc1ccc(-c2nsc3c2NC(=O)CC3c2cccc(F)c2)cc1` (centres undefined), the GI50 with CCRF-CEM leukemia was 4.89 µM; in the assay with HCT-15 colon it was 2.41 µM; in the assay on HT29 colon, 3.11 µM; in the assay on MCF7 breast, 3.89 µM; in the assay on MDA-MB-435 it was 0.827 µM; in the assay on SF-539 CNS, 5.19 µM. Moreover, the GI50 in the assay with SK-MEL-2 melanoma was 3.3 µM; with SK-MEL-28 melanoma it was 7.37 µM; in the assay with SNB-75 CNS, 4.78 µM; in the assay with T-47D breast it was 4.81 µM. For the same molecule, the TGI was more than 100 µM in the assay on CCRF-CEM leukemia; more than 100 µM in the assay on HCT-15 colon; more than 100 µM in the assay on HT29 colon; more than 100 µM with MCF7 breast; 4.07 µM in the assay with MDA-MB-435; more than 100 µM in the assay on SF-539 CNS. Also, the TGI in the assay on SK-MEL-2 melanoma is 9.19 µM; in the assay with SK-MEL-28 melanoma, more than 100 µM; with SNB-75 CNS, 86.2 µM; in the assay with T-47D breast it was more than 100 µM.

In the case of `O=c1oc2ccc(I)cc2c(=O)n1-c1ccc(I)cc1F`, the GI50 in the assay on CCRF-CEM leukemia was 1.89 µM; with HCT-15 colon it was 0.704 µM; in the assay on HT29 colon it was 3.43 µM; in the assay on MCF7 breast it was 1.08 µM; with MDA-MB-435, 0.586 µM; in the assay on SF-539 CNS it was 0.484 µM. The GI50 was 0.391 µM with SK-MEL-2 melanoma, 0.358 µM in the assay on SK-MEL-28 melanoma, 0.32 µM with SNB-75 CNS and 0.298 µM in the assay on T-47D breast. The TGI in the assay with CCRF-CEM leukemia came to 10.8 µM; with HCT-15 colon, 10.5 µM; in the assay on HT29 colon it was 15.3 µM; in the assay on MCF7 breast, 11.3 µM; with MDA-MB-435, 5.6 µM; with SF-539 CNS it was 4.29 µM. For the same molecule, the TGI in the assay on SK-MEL-2 melanoma was found to be 2.55 µM; in the assay with SK-MEL-28 melanoma, 1.9 µM; in the assay with SNB-75 CNS, 2.57 µM; in the assay on T-47D breast it was 3.49 µM.

With `CN(C)C[C@@H]1CCn2cc(c3ccccc32)C2=C(C(=O)NC2=O)c2cn(c3ccccc23)CCO1`, the GI50 in the assay with CCRF-CEM leukemia is 0.459 µM; with HCT-15 colon, 1.61 µM; in the assay with HT29 colon, 3.32 µM; in the assay with MCF7 breast it was 1.74 µM; in the assay with MDA-MB-435 it was 1.46 µM; with SF-539 CNS, 1.08 µM. Also, the GI50 with SK-MEL-2 melanoma is 2 µM; in the assay on SK-MEL-28 melanoma, 1.03 µM; with SNB-75 CNS, 1.4 µM; in the assay with T-47D breast, 0.828 µM. Moreover, the TGI was 2.73 µM with CCRF-CEM leukemia; more than 10 µM with HCT-15 colon; more than 10 µM with HT29 colon; more than 10 µM in the assay on MCF7 breast; more than 10 µM in the assay with MDA-MB-435; 2.45 µM with SF-539 CNS. The TGI in the assay on SK-MEL-2 melanoma is more than 10 µM; in the assay on SK-MEL-28 melanoma, 8.13 µM; in the assay with SNB-75 CNS it was 5.96 µM; in the assay on T-47D breast, more than 10 µM.
